Results on 35 compounds are retold here after patent US20100035871A1, “BENZOXAZINE DERIVATIVES AND USES THEREOF” (priority 2006, published 2010).

The structures appear in SMILES notation. Structures can show the parent of a compound that is named as a salt.

What is called melting point is the temperature, or range, at which the solid turns liquid. For `NC[C@H]1CNc2cccc(-c3ccccc3Cl)c2O1` (as salt: hydrochloride) [Example 39, 1-[(2S)-8-(2-chlorophenyl)-3,4-dihydro-2H-1,4-benzoxazin-2-yl]methanamine], the melting point is 145 °C (dec.).

For `NC[C@@H]1CNc2cccc(-c3ccccc3Cl)c2O1` (as salt: hydrochloride) [Example 40, 1-[(2R)-8-(2-chlorophenyl)-3,4-dihydro-2H-1,4-benzoxazin-2-yl]methanamine], the melting point is 135 °C (dec.).

For the compound `NC[C@@H]1CNc2cccc(-c3ccccc3C(F)(F)F)c2O1` (as salt: hydrochloride) [Example 41, 1-{(2R)-8-[2-(trifluoromethyl)phenyl]-3,4-dihydro-2H-1,4-benzoxazin-2-yl}methanamine], the melting point is 180 °C (dec.).

Turning to `Cc1cc(Cl)ccc1-c1cccc2c1O[C@H](CN)CN2` (as salt: hydrochloride) [Example 42, 1-[(2R)-8-(4-chloro-2-methylphenyl)-3,4-dihydro-2H-1,4-benzoxazin-2-yl]methanamine], the melting point is 195 °C (dec.).

On to `NC[C@@H]1CNc2cccc(-c3ccccc3F)c2O1` (as salt: hydrochloride) [Example 43, 1-[(2R)-8-(2-fluorophenyl)-3,4-dihydro-2H-1,4-benzoxazin-2-yl]methanamine], for which the melting point is 186 °C (dec.).

As to `COc1ccc(-c2cccc3c2O[C@H](CN)CN3)c(C)c1` (as salt: hydrochloride) [Example 44, 1-[(2R)-8-(4-methoxy-2-methylphenyl)-3,4-dihydro-2H-1,4-benzoxazin-2-yl]methanamine], the melting point was 221 °C (dec.).

Consider `COc1ccc(-c2cccc3c2O[C@H](CN)CN3)cc1` (as salt: hydrochloride) [Example 45, 1-[(2R)-8-(4-methoxyphenyl)-3,4-dihydro-2H-1,4-benzoxazin-2-yl]methanamine], for which the melting point was 196 °C (dec.).

Regarding `COc1ccc(-c2cccc3c2O[C@H](CN)CN3)c(Cl)c1` (as salt: hydrochloride) [Example 46, 1-[(2R)-8-(2-chloro-4-methoxyphenyl)-3,4-dihydro-2H-1,4-benzoxazin-2-yl]methanamine], the melting point was 211 °C (dec.).

In the case of `NC[C@H]1CNc2cccc(-c3ccccc3C(F)(F)F)c2O1` (as salt: hydrochloride) [Example 47, 1-{(2S)-8-[2-(trifluoromethyl)phenyl]-3,4-dihydro-2H-1,4-benzoxazin-2-yl}methanamine], the melting point was 179 °C (dec.).

Regarding `Cc1cc(Cl)ccc1-c1cccc2c1O[C@@H](CN)CN2` (as salt: hydrochloride) [Example 48, 1-[(2S)-8-(4-chloro-2-methylphenyl)-3,4-dihydro-2H-1,4-benzoxazin-2-yl]methanamine], the melting point is 196 °C (dec.).

As for `NC[C@H]1CNc2cccc(-c3ccccc3F)c2O1` (as salt: hydrochloride) [Example 49, 1-[(2S)-8-(2-fluorophenyl)-3,4-dihydro-2H-1,4-benzoxazin-2-yl]methanamine], the melting point was 190 °C (dec.).

On to `COc1ccc(-c2cccc3c2O[C@@H](CN)CN3)c(C)c1` (as salt: hydrochloride) [Example 50, 1-[(2S)-8-(4-methoxy-2-methylphenyl)-3,4-dihydro-2H-1,4-benzoxazin-2-yl]methanamine], for which the melting point was 222 °C (dec.).

With `COc1ccc(-c2cccc3c2O[C@@H](CN)CN3)cc1` (as salt: hydrochloride) [Example 51, 1-[(2S)-8-(4-methoxyphenyl)-3,4-dihydro-2H-1,4-benzoxazin-2-yl]methanamine], the melting point was 198 °C (dec.).

On to `COc1ccc(-c2cccc3c2O[C@@H](CN)CN3)c(Cl)c1` (as salt: hydrochloride) [Example 52, 1-[(2S)-8-(2-chloro-4-methoxyphenyl)-3,4-dihydro-2H-1,4-benzoxazin-2-yl]methanamine], for which the melting point is 215 °C (dec.).

Regarding `NC[C@@H]1CNc2cccc(-c3cc(Cl)ccc3Cl)c2O1` (as salt: hydrochloride) [Example 53, 1-[(2R)-8-(2,5-dichlorophenyl)-3,4-dihydro-2H-1,4-benzoxazin-2-yl]methanamine], the melting point was 130 °C (dec.).

For the compound `NC[C@@H]1CNc2cccc(-c3ccc(Cl)cc3Cl)c2O1` (as salt: hydrochloride) [Example 54, 1-[(2R)-8-(2,4-dichlorophenyl)-3,4-dihydro-2H-1,4-benzoxazin-2-yl]methanamine], the melting point was 163 °C (dec.).

For `NC[C@@H]1CNc2cccc(-c3ccc(Cl)cc3C(F)(F)F)c2O1` (as salt: hydrochloride) [Example 67, 1-{(2R)-8-[4-chloro-2-(trifluoromethyl)phenyl]-3,4-dihydro-2H-1,4-benzoxazin-2-yl}methanamine], the melting point is 203 °C (dec.).

As for `COc1ccccc1-c1cccc2c1OC(CN)CN2C` (racemic) (as salt: hydrochloride) [Example 1, 1-[8-(2-Methoxyphenyl)-4-methyl-3,4-dihydro-2H-1,4-benzoxazin-2-yl]methanamine], the melting point was 90 °C (dec.).

`Cc1cc(Cl)ccc1-c1cccc2c1OC(CN)CN2C` (racemic) (as salt: hydrochloride) [Example 2, 1-[8-(4-Chloro-2-methylphenyl)-4-methyl-3,4-dihydro-2H-1,4-benzoxazin-2-yl]methanamine]: the melting point fell in the range of 109 to 112 °C.

Consider `CN1CC(CN)Oc2c(-c3ccc(Cl)cc3Cl)cccc21` (racemic) (as salt: hydrochloride) [Example 3, 1-[8-(2,4-Dichlorophenyl)-4-methyl-3,4-dihydro-2H-1,4-benzoxazin-2-yl]methanamine], for which the melting point is 90 °C (dec.).

For `CN1CC(CN)Oc2c(-c3ccccc3C(F)(F)F)cccc21` (racemic) (as salt: hydrochloride) [Example 4, 1-{4-Methyl-8-[2-(trifluoromethyl)phenyl]-3,4-dihydro-2H-1,4-benzoxazin-2-yl}methanamine], the melting point was 90 °C (dec.).

For `COc1ccc(-c2cccc3c2OC(CN)CN3C)c(C)c1` (racemic) (as salt: hydrochloride) [Example 5, 1-[8-(4-Methoxy-2-methylphenyl)-4-methyl-3,4-dihydro-2H-1,4-benzoxazin-2-yl]methanamine], the melting point is 85 °C (dec.).

`COc1ccc(-c2cccc3c2OC(CN)CN3C)cc1` (racemic) (as salt: hydrochloride) [Example 6, 1-[8-(4-Methoxyphenyl)-4-methyl-3,4-dihydro-2H-1,4-benzoxazin-2-yl]methanamine]: the melting point was in the range of 90 to 92 °C.

In the case of `CN1CC(CN)Oc2c(-c3ccccc3F)cccc21` (racemic) (as salt: hydrochloride) [Example 7, 1-[8-(2-Fluorophenyl)-4-methyl-3,4-dihydro-2H-1,4-benzoxazin-2-yl]methanamine], the melting point was 104 °C (dec.).

Regarding `Cc1ccccc1-c1cccc2c1OC(CN)CN2C` (racemic) (as salt: hydrochloride) [Example 8, 1-[4-Methyl-8-(2-methylphenyl)-3,4-dihydro-2H-1,4-benzoxazin-2-yl]methanamine], the melting point was 92 °C (dec.).

Turning to `CN1CC(CN)Oc2c(-c3ccccc3)cccc21` (racemic) (as salt: hydrochloride) [Example 9, 1-(4-Methyl-8-phenyl-3,4-dihydro-2H-1,4-benzoxazin-2-yl)methanamine], the melting point is 80 °C (dec.).

In turn, `NCC1CNc2cc(F)cc(-c3c(Cl)cccc3Cl)c2O1` (racemic) (as salt: hydrochloride) [Example 10, 1-[8-(2,6-Dichlorophenyl)-6-fluoro-3,4-dihydro-2H-1,4-benzoxazin-2-yl]methanamine] had a melting point of 135 to 136 °C.

Turning to `CN1CC(CN)Oc2c(-c3ccccc3Cl)cccc21` (racemic) (as salt: hydrochloride) [Example 11, 1-[8-(2-Chlorophenyl)-4-methyl-3,4-dihydro-2H-1,4-benzoxazin-2-yl]methanamine], the melting point is 80 °C (dec.).

As for `NCC1CN(CC2CC2)c2cccc(-c3ccccc3Cl)c2O1` (racemic) (as salt: hydrochloride) [Example 12, 1-[8-(2-Chlorophenyl)-4-(cyclopropylmethyl)-3,4-dihydro-2H-1,4-benzoxazin-2-yl]methanamine], the melting point was 90 °C (dec.).

On to `CN1CC(CN)Oc2c(-c3cc(Cl)ccc3Cl)cccc21` (racemic) (as salt: hydrochloride) [Example 13, 1-[8-(2,5-Dichlorophenyl)-4-methyl-3,4-dihydro-2H-1,4-benzoxazin-2-yl]methanamine], for which the melting point is 90 °C (dec.).

For `NCC1CNc2cccc(-c3cc(Cl)ccc3Cl)c2O1` (racemic) (as salt: hydrochloride) [Example 14, 1-[8-(2,5-Dichlorophenyl)-3,4-dihydro-2H-1,4-benzoxazin-2-yl]methanamine], the melting point was 130 °C (dec.).

Compound `NCC1CNc2cccc(-c3ccc(Cl)cc3Cl)c2O1` (racemic) (as salt: hydrochloride) [Example 15, 1-[8-(2,4-Dichlorophenyl)-3,4-dihydro-2H-1,4-benzoxazin-2-yl]methanamine] had a melting point of 158 to 161 °C.

`NCC1CNc2cccc(-c3ccccc3Cl)c2O1` (racemic) (as salt: hydrochloride) [Example 16, 1-[8-(2-Chlorophenyl)-3,4-dihydro-2H-1,4-benzoxazin-2-yl]methanamine]: the melting point is 140 °C (dec.).

The compound `Cc1ccccc1-c1cccc2c1OC(CN)CN2` (racemic) (as salt: hydrochloride) [Example 17, 1-[8-(2-Methylphenyl)-3,4-dihydro-2H-1,4-benzoxazin-2-yl]methanamine] gave a melting point of 195 to 197 °C.

Regarding `NCC1CNc2cccc(-c3ccc(Cl)cc3C(F)(F)F)c2O1` (racemic) (as salt: hydrochloride) [Example 18, 1-{8-[4-Chloro-2-(trifluoromethyl)phenyl]-3,4-dihydro-2H-1,4-benzoxazin-2-yl}methanamine], the melting point fell in the range of 205 to 207 °C.
